# Where a name gives a salt, the structure may show the parent alone.
# How the values were obtained:
# [1] = Deep sequencing and sequence family analysis of parallel assessment populations, acyclovir candidates; assay type: binding; settings: for Enrichment rate: ratio between final positive and penultimate positive population; for presence in the negative population: sequenced final generation library responding to 1X selection buffer; for presence in the counter-targets population: sequenced final generation library responding to counter-targets
# Excerpt: The Illumina MiSeq system (San Diego, CA) was implemented to sequence the aptamer libraries after parallel assessment using a single-end read technique. Deep sequencing and subsequent data analysis reduces the large number of screening rounds traditional SELEX requires, which may introduce error and bias due to the screening process (Schütze et al., 2011). Five samples were sequenced: the final generation library that responded to acyclovir, the final generation library that responded to the counter-targets, the final generation library that responded to 1× selection buffer (negative condition), the penultimate generation library that responded to acyclovir, and the final generation library that responded to the additional target of interest, penciclovir. From these sets of data, sequence families were constructed at 95% homology (sequence similarity considering mutations, deletions, and insertion) for aptamer candidate identification. There were 1,711,535 raw sequences (124,600 unique sequences) from the library that responded to acyclovir and 2,074,832 raw sequences (110,149 unique sequences) from the library that responded to penciclovir.
# Sequence family construction focused primarily on sequence similarity. This means that a sequence's frequency in the positive target population was factored in, but greater emphasis was placed on the degree of variation between similar sequences, with 95% homology being the minimum requirement (100% match over the entire sequence is not necessary to join a family, up to 2 bases can be mismatched, inserted, or deleted). One would therefore expect families with the greatest number of members to rank highly as aptamer candidates. […] Under these conditions, several candidate families appeared to be strong candidates for binding acyclovir (Table 2) and penciclovir.
# [2] = Qualitative PAGE assessment of selected aptamers after graphene oxide selection; assay type: binding; settings: 0.5 mM MgCl2, 37° C., 0.5 μM aptamer, 1 μM target or counter-targets
# Experimental: Qualitative PAGE assessment of selected aptamers was performed. Individually synthesized and transcribed aptamers were subjected to selection on Graphene Oxide (GrO) under physiological Mg++ (0.5 mM) and elution with either acyclovir (+) or counter-targets (×). The specifically eluted aptamer fractions for each sample were subjected to PAGE for analysis.
# Final library concentration was 0.5 μM, target/counter-targets concentration was 1 μM (incubation volume was 200 μl).
# After target/counter-target incubation, 250 μg of GrO (Angstrom Materials (Dayton, OH) was added to adsorb unbound candidate (10-minute incubation at 37° C.).
# Samples were centrifuged for 5 minutes at 7,000×g. […] Running buffer was 1×TBE (supplier: Amresco/VWR; catalog #0658-20L, diluted using DI water). DNA ladder was 20/100 DNA ladder (IDT). Gels stained with Gel Star (Lonza, 50535) and imaged on a blue light transilluminator.
# [3] = system: deoxyguanosine switch; assay: Tests of natural deoxyguanosine riboswitch with nucleoside analogues; assay type: binding
# Excerpt: This example provides a method to screen libraries based on natural structural riboswitches that bind guanosine and deoxyguanosine. These riboswitches were used as scaffolds to develop biased libraries for the selection of aptamers that bind specifically to a ligand nucleoside analogue. Previously, isothermal titration calorimetry has been used to show these natural riboswitches bind to their native ligands. […] The single-stranded regions of the riboswitch were targeted for mutation and variant sequences that specifically respond to acyclovir or penciclovir were selected for.
# [4] = system: CHO-Target 1 cells; assay: pH shift cytotoxicity assay / HCl switch RTCA killing assay (xCELLigence); assay type: cell-based
# Experimental: The cytotoxic activity of transduced T cells before and after pH change by addition of NaHCO3 or NaOH was measured using the xCELLigence System. Briefly, one day before the experiment, target cells (CHO cells stably transfected with a construct to express Target 1 on the cell surface (CHO-Target 1 cells)), were seeded into a 96-well E-plate (ACEA; San Diego, CA) at 10,000 cells/well with X-VIVO 15 media containing 40 mM HEPES and 40 mM PIPES, pH 6.7. Cryopreserved effector cells previously transduced with either lentiviral particles containing the nucleic acid encoding T1B or C1 (T1BVP and C1VP, respectively) produced as discussed above, were thawed and cultured for two days in X-VIVO 15 media containing 100 IU/mL of IL-2 (R&D Systems, Minneapolis, MN). On the day of the experiment, cells transduced with T1BVP or C1VP were washed and resuspended in X-VIVO 15 media containing 40 mM HEPES and 40 mM PIPES, pH 6.7 and then added into the experimental wells at effector cell/target cell ratios (E/T) of 1:1.
# Impedance readings measured on the xCELLigence System (ACEA) were taken every 5 minutes and reported as the Cell Index (CI) to quantitate cell confluency as a measure of cell proliferation/cell lysis. Approximately 3 hours after effector cell addition, 8 μl of 7.5% NaHCO3 or 14 μl of 0.5 M NaOH was added into the wells with X-VIVO 15 media containing 40 mM HEPES and 40 mM PIPES, pH 6.7 to increase the pH from 6.7 to 7.4. Impedance readings were continued for approximately 20 hours after effector cell addition. Percentage of specific cytolysis was calculated as follows ((CI Target+C1VP transduced effector T cells)−(CI Target+T1BVP transduced effector T cells))/(CI Target+C1VP transduced effector T cells)×100.
# The cytotoxic activity of transduced T cells before and after pH change by addition of HCl was measured using the xCELLigence System. Briefly, one day before the experiment, CHO-Target 1 cells were seeded into a 96 well E-plate at 10,000 cells/well with X-VIVO 15 media containing 40 mM HEPES and 40 mM PIPES, pH 7.4. Cryopreserved effector cells previously transduced with either C1VP or T1BVP, were thawed and cultured for two days in X-VIVO 15 media containing 100 IU/mL of IL-2. On the day of the experiment, cells transduced with T1BVP or C1VP were washed and resuspended in X-VIVO 15 media containing 40 mM HEPES and 40 mM PIPES, pH 7.4 and then added into experimental wells at effector cell/target cell ratios (E/T) of 1:1.
# Impedance readings were taken every 5 minutes and reported as the Cell Index (CI). […] Impedance readings were continued for approximately 20 hours after effector cell addition. Percentage of specific cytolysis was calculated as follows ((CI Target+C1VP transduced effector T cells)−(CI Target+T1BVP transduced effector T cells))/(CI Target C1VP)×100.
# [5] = Thermal denaturation by differential scanning calorimetry (DSC)
# Experimental: At least 10 nmole of each candidate was lyophilized, and resuspended in 1× Binding Buffer (50 mM HEPES, 100 mM KCl, 0.5 mM MgCl2, pH 7.3) on the day of binding assessment.
# All analyses were conducted in 1× Binding Buffer and all water used was DEPC-treated. All analytes were resuspended first in DEPC-treated water then diluted to their final listed concentration in 1× Binding Buffer. Prior to loading of the DSC (GE Healthcare MicroCal VP-DSC), the samples were degassed at 25° C. for 10 minutes.
Molecule,Enrichment rate [1],presence in the negative population [1],presence in the counter-targets population [1],response in qualitative PAGE assessment (elution from GrO with acyclovir vs counter-targets) [2],also measured
"F1A-582: acyclovir aptamer candidate, most prevalent sequence of family 582; SEQ ID NO:108 (ACAGCTTAGCGTAATGGCTACTGACGCCGTCCAAACCTATTTACAGACT; RNA riboswitch aptamer, listed DNA covers non-stem region only, further chemistry not given here) [Candidate F1A-582]",greatest enrichment rate,did not perform well,did not perform well,–,–
"F1A-996: acyclovir aptamer candidate; SEQ ID NO:221 (ACAGGGTAGCATAATGGCTTAGGACGCCTTCAAACCTATCAAGACT; RNA riboswitch aptamer, listed DNA covers non-stem region only, further chemistry not given here) [Candidate F1A-996]",–,performing less well,show up to a small degree,selective positive response,–
Nc1nc2c(ncn2CCC(CO)CO)c(=O)[nH]1 [penciclovir],–,–,–,–,interaction with deoxyguanosine switch [3]: interacted weakly
"F1A-961: acyclovir aptamer candidate; SEQ ID NO:220 (ACACCGTAGCATAATGGGCTACTGCCGCCGTCGACCTTTTGGAGACT; RNA riboswitch aptamer, listed DNA covers non-stem region only, further chemistry not given here) [Candidate F1A-961]",–,performing less well,show up to a small degree,–,–
"F1A-946: acyclovir aptamer candidate, most prevalent sequence of family 946; SEQ ID NO:198 (ACAGCGTAGCATAATGGGCTGCAGACGCCGTCAAACCTATTTGCAGACT; RNA riboswitch aptamer, listed DNA covers non-stem region only, further chemistry not given here) [Candidate F1A-946]",performing adequately,not found,not detected,selective positive response,–
Nc1nc2c(ncn2COCCO)c(=O)[nH]1 [acyclovir],–,–,–,–,interaction with deoxyguanosine switch [3]: interacted weakly
Cl [HCl],–,–,–,–,"effect on cytotoxic activity of MRB-CAR T cells of switching media pH from 7.4 to 6.7 ([4]; 8 μl of 1 M HCl about 3 hours after effector cells, E/T 1:1): increased"
"F1A-769: acyclovir aptamer candidate, most prevalent sequence of family 769; SEQ ID NO:147 (ACAGGTCAGCATAATGTGCTAGTGCGCCTTCAAACCTATTTAGAGACT; RNA riboswitch aptamer, listed DNA covers non-stem region only, further chemistry not given here) [Candidate F1A-769]",performing adequately,minimally detected,–,selective positive response,–
"F1A-935: acyclovir aptamer candidate, most prevalent sequence of family 935; SEQ ID NO:183 (ACAGGGTAGCATAATGGGCTACTTGACGCCTTCACCTATTTGTAGACT; RNA riboswitch aptamer, listed DNA covers non-stem region only, further chemistry not given here) [Candidate F1A-935]",performing adequately,not found,not detected,–,–
"F1A-795: acyclovir aptamer candidate, most prevalent sequence of family 795; SEQ ID NO:164 (ACAGCGAAGCATAATGGCTACTGACGCCCTCAAACCCTATTTGCAGACT; RNA riboswitch aptamer, listed DNA covers non-stem region only, further chemistry not given here) [Candidate F1A-795]",–,performing less well,not detected,selective positive response,"thermal denaturation transition ([5]; absence of acyclovir, 7.2 μM F1A-795, 1X Binding Buffer): about 60 °C; binding of acyclovir to the aptamer domain ([5]; concluded from stabilizing effect in DSC): bound by acyclovir"
[Na+].[OH-] [NaOH],–,–,–,–,"effect on cytotoxic activity of MRB-CAR T cells of raising media pH from 6.7 to 7.4 ([4]; added about 3 hours after effector cells, E/T 1:1): inhibited the cytotoxic activity"
T1B: an anti-Target 1 MRB-CAR from the series of candidate MRB-CARs in Example 3 (protein) EVQLVQSGAEVKKPGATVKISCKVSGYSFWGATMNWIRQPPGKGLEWIGLIKPSNGGTSYNQKFKGRVTISADKSISTAYLQWSSLKASDTAMYYCAHGHYESYEAMDYWGQGTLVTVSSGGGGSGGGGSGGGGSDIQMTQSPSSLSASVGDRVTITCKASQDVVSAVAWYQQKPGQAPRLLIYWQDTRHTGVPSRFSGSGSGTEFTLTISSLQPDDFATYYCQEHFSPPLTFGQGTKVEIKFWVLVVVGGVLACYSLLVTVAFIIFWVRSKRSRLLHSDYMNMTPRRPGPTRKHYQAYAAARDFAAYRSRVKFSRSADAPAYQQGQNQLYNELNLGRREEYDVLDKRRGRDPEMGGKPRRKNPQEGLYNELQKDKMAEAYSEIGMKGERRRGKGHDGLYQGLSTATKDTYDALHMQALPPR,–,–,–,–,"cytotoxic activity on CHO-Target 1 cells ([4]; pH 7.4, E/T 1:1): low"

# Reference: patent publication US12258574B2, “Methods and compositions for transducing lymphocytes and regulating the activity thereof” (Exuma Biotech Corp., priority 2016, dated 2025)
